# Results taken from ChEMBL document CHEMBL3044672, “N9- and N7-(Chloromethyl Phenymethyl)Chloropurine Derivatives from , '-Dichloroxylenes: Synthesis and Anticancer Activity” (2005).
# Columns and labels:
# Type in all cases: functional
# [1] = test system: SK-OV-3; assay: Cytotoxicity against Homo sapiens (human) SKOV3 cells after 48 hr by sulforhodamine B assay; conditions: SK-OV-3, 48 h
# [2] = test system: OVCAR-8; assay: Cytotoxicity against Homo sapiens (human) OVCAR8 cells after 48 hr by sulforhodamine B assay; conditions: OVCAR-8, 48 h
# [3] = test system: CCRF-CEM; assay: Cytotoxicity against Homo sapiens (human) CCRF-CEM cells after 48 hr by sulforhodamine B assay; conditions: for CC50: read-out: LC50 (the source's name)
# [4] = test system: TK-10; assay: Cytotoxicity against Homo sapiens (human) TK10 cells after 48 hr by sulforhodamine B assay; conditions: TK-10, 48 h; for CC50: read-out: LC50 (the source's name)
# [5] = test system: SF-268; assay: Cytotoxicity against Homo sapiens (human) SF268 cells after 48 hr by sulforhodamine B assay; conditions: SF-268, 48 h; for CC50: read-out: LC50 (the source's name)
# [6] = test system: 786-0; assay: Cytotoxicity against Homo sapiens (human) 786-0 cells after 48 hr by sulforhodamine B assay; conditions: 786-0, 48 h
# [7] = test system: RPMI-8226; assay: Cytotoxicity against Homo sapiens (human) RPMI8226 cells after 48 hr by sulforhodamine B assay; conditions: RPMI-8226, 48 h
# [8] = test system: NCI-H460; assay: Cytotoxicity against Homo sapiens (human) NCI-H460 cells assessed as cell growth at 10^-4 M after 48 hr by Alamar blue assay; conditions: NCI-H460, 48 h, read-out: Activity
# [9] = test system: BT-549; assay: Cytotoxicity against Homo sapiens (human) BT549 cells after 48 hr by sulforhodamine B assay; conditions: BT-549, 48 h
# [10] = test system: ACHN; assay: Cytotoxicity against Homo sapiens (human) ACHN cells after 48 hr by sulforhodamine B assay; conditions: for CC50: read-out: LC50 (the source's name)
# [11] = test system: NCI-H460; assay: Cytotoxicity against Homo sapiens (human) NCI-H460 cells after 48 hr by sulforhodamine B assay; conditions: NCI-H460, 48 h; for CC50: read-out: LC50 (the source's name)
# [12] = test system: MCF7; assay: Cytotoxicity against Homo sapiens (human) MCF7 cells after 48 hr by sulforhodamine B assay; conditions: MCF7, 48 h
# [13] = test system: LOX IMVI; assay: Cytotoxicity against Homo sapiens (human) LOXIMVI cells after 48 hr by sulforhodamine B assay
# [14] = test system: SF-295; assay: Cytotoxicity against Homo sapiens (human) SF295 cells after 48 hr by sulforhodamine B assay; conditions: SF-295, 48 h; for CC50: read-out: LC50 (the source's name)
# [15] = test system: SNB-19; assay: Cytotoxicity against Homo sapiens (human) SNB19 cells after 48 hr by sulforhodamine B assay; conditions: SNB-19, 48 h
# [16] = test system: DU-145; assay: Cytotoxicity against Homo sapiens (human) DU145 cells after 48 hr by sulforhodamine B assay; conditions: DU-145, 48 h
# [17] = test system: SK-MEL-28; assay: Cytotoxicity against Homo sapiens (human) SK-MEL-28 cells after 48 hr by sulforhodamine B assay; conditions: SK-MEL-28, 48 h
# [18] = test system: HCT-15; assay: Cytotoxicity against Homo sapiens (human) HCT15 cells after 48 hr by sulforhodamine B assay; conditions: HCT-15, 48 h; for CC50: read-out: LC50 (the source's name)
# [19] = test system: HOP-92; assay: Cytotoxicity against Homo sapiens (human) HOP92 cells after 48 hr by sulforhodamine B assay; conditions: HOP-92, 48 h; for CC50: read-out: LC50 (the source's name)
# [20] = test system: OVCAR-5; assay: Cytotoxicity against Homo sapiens (human) OVCAR5 cells after 48 hr by sulforhodamine B assay; conditions: OVCAR-5, 48 h; for CC50: read-out: LC50 (the source's name)
# [21] = test system: MCF7; assay: Cytotoxicity against Homo sapiens (human) MCF7 cells assessed as cell growth at 10^-4 M after 48 hr by Alamar blue assay; conditions: MCF7, 48 h, read-out: Activity
# [22] = test system: Hs-578T; assay: Cytotoxicity against Homo sapiens (human) Hs 578T cells after 48 hr by sulforhodamine B assay
# [23] = test system: A498; assay: Cytotoxicity against Homo sapiens (human) A498 cells after 48 hr by sulforhodamine B assay; conditions: A498, 48 h
# [24] = test system: M14; assay: Cytotoxicity against Homo sapiens (human) M14 cells after 48 hr by sulforhodamine B assay; conditions: M14, 48 h
# [25] = test system: UO-31; assay: Cytotoxicity against Homo sapiens (human) UO31 cells after 48 hr by sulforhodamine B assay; conditions: UO-31, 48 h
# [26] = test system: T47D; assay: Cytotoxicity against Homo sapiens (human) T47D cells after 48 hr by sulforhodamine B assay
# [27] = test system: SW-620; assay: Cytotoxicity against Homo sapiens (human) SW620 cells after 48 hr by sulforhodamine B assay; conditions: SW-620, 48 h
# [28] = test system: SNB-75; assay: Cytotoxicity against Homo sapiens (human) SNB75 cells after 48 hr by sulforhodamine B assay; conditions: SNB-75, 48 h
# [29] = read-out: LC50 (the source's name)
smiles,measurement,setting,value
ClCc1ccc(Cn2cnc3c(Cl)ncnc32)cc1,GI50,[1],3.38 µM
same,LC50,[1],91.2 µM
same,TGI,[1],13.8 µM
same,GI50,[2],3.02 µM
same,LC50 (concentration killing 50% of cells),[2],64.6 µM
same,TGI,[2],15.1 µM
same,GI50,[3],0.51 µM
same,TGI,[3],> 100 µM
same,CC50,[3],> 100 µM
same,GI50,[4],1.09 µM
same,TGI,[4],4.67 µM
same,CC50,[4],22.9 µM
same,GI50,[5],0.64 µM
same,TGI,[5],2.88 µM
same,CC50,[5],9.33 µM
same,GI50,[6],1.02 µM
same,LC50,[6],21.4 µM
same,TGI,[6],3.98 µM
same,GI50,[7],2.13 µM
same,TGI,[7],9.34 µM
same,CC50,[7]; [29],> 100 µM
same,growth at 100 µM,[8],0%
same,GI50,[9],5.62 µM
same,LC50 (50% lethal concentration),[9],57.5 µM
same,TGI,[9],21.4 µM
same,GI50,[10],0.31 µM
same,TGI,[10],1.28 µM
same,CC50,[10],3.8 µM
same,GI50,[11],0.05 µM
same,TGI,[11],1.82 µM
same,CC50,[11],26.9 µM
same,GI50,[12],0.41 µM
same,LC50 (concentration killing 50% of cells),[12],> 100 µM
same,TGI,[12],77.6 µM
same,GI50,[13],1 µM
same,LC50,[13],13.5 µM
same,TGI,[13],3.46 µM
same,GI50,[14],0.27 µM
same,TGI,[14],3.46 µM
same,CC50,[14],24 µM
same,GI50,[15],3.63 µM
same,LC50,[15],89.1 µM
same,TGI,[15],21.9 µM
same,GI50,[16],1.31 µM
same,LC50,[16],36.3 µM
same,TGI,[16],11.8 µM
same,GI50,[17],7.94 µM
same,LC50 (concentration killing 50% of cells),[17],> 100 µM
same,TGI,[17],30.9 µM
same,GI50,[18],1.95 µM
same,TGI,[18],12.6 µM
same,CC50,[18],63.1 µM
same,GI50,[19],6.02 µM
same,TGI,[19],66.1 µM
same,CC50,[19],> 100 µM
same,GI50,[20],2.95 µM
same,TGI,[20],9.23 µM
same,CC50,[20],34.7 µM
same,growth at 100 µM,[21],7%
same,GI50,[22],10.2 µM
same,LC50,[22],> 100 µM
same,TGI,[22],38.9 µM
same,GI50,[23],12.9 µM
same,"LC50 (lethal concentration, 50% cell kill)",[23],57.5 µM
same,TGI,[23],26.9 µM
same,GI50,[24],1.28 µM
same,LC50,[24],9.12 µM
same,TGI,[24],3.46 µM
same,GI50,[25],2.08 µM
same,LC50 (concentration causing 50% net cell kill),[25],> 100 µM
same,TGI,[25],4.57 µM
ClCc1ccccc1Cn1cnc2nc(Cl)nc(Cl)c21,GI50,[1],5.88 µM
same,LC50,[1],56.2 µM
same,TGI,[1],20.9 µM
same,GI50,[26],0.58 µM
same,LC50,[26],> 100 µM
same,TGI,[26],5.24 µM
same,GI50,[2],2.75 µM
same,LC50 (concentration killing 50% of cells),[2],75.9 µM
same,TGI,[2],7.07 µM
same,GI50,[3],0.1 µM
same,TGI,[3],0.3 µM
same,CC50,[3],0.93 µM
same,GI50,[4],19.5 µM
same,TGI,[4],33.9 µM
same,CC50,[4],60.2 µM
same,GI50,[5],3.01 µM
same,TGI,[5],24.5 µM
same,CC50,[5],> 100 µM
same,GI50,[6],2.63 µM
same,LC50,[6],30.9 µM
same,TGI,[6],7.07 µM
same,GI50,[7],0.21 µM
same,TGI,[7],0.63 µM
same,GI50,[27],0.26 µM
same,TGI,[27],0.67 µM
same,CC50,[27]; [29],4.67 µM
same,growth at 100 µM,[8],0%
same,GI50,[9],1.34 µM
same,LC50 (50% lethal concentration),[9],7.07 µM
same,TGI,[9],3.09 µM
same,GI50,[28],1.9 µM
same,TGI,[28],4.46 µM
same,CC50,[28]; [29],> 100 µM
same,GI50,[10],0.35 µM
same,TGI,[10],1.25 µM
same,CC50,[10],3.54 µM
same,GI50,[11],2.39 µM
same,TGI,[11],5.88 µM
same,CC50,[11],> 100 µM
same,GI50,[12],1.04 µM
same,LC50 (concentration killing 50% of cells),[12],> 100 µM
same,TGI,[12],2.57 µM
same,GI50,[13],0.16 µM
same,LC50,[13],0.72 µM
same,TGI,[13],0.35 µM
same,GI50,[14],19.9 µM
same,TGI,[14],35.5 µM
same,CC50,[14],61.6 µM
same,LC50,[16],7.24 µM
same,GI50,[17],0.35 µM
same,LC50 (concentration killing 50% of cells),[17],> 100 µM
same,TGI,[17],> 100 µM
same,GI50,[18],0.19 µM
same,TGI,[18],0.43 µM
same,CC50,[18],0.95 µM
same,GI50,[19],1.14 µM
same,TGI,[19],2.81 µM
same,CC50,[19],> 100 µM
same,GI50,[20],2.69 µM
same,TGI,[20],5.75 µM
same,CC50,[20],28.8 µM
same,growth at 100 µM,[21],0%
same,GI50,[22],0.67 µM
same,LC50,[22],> 100 µM
same,TGI,[22],2.57 µM
same,GI50,[23],2.51 µM
same,"LC50 (lethal concentration, 50% cell kill)",[23],19.5 µM
same,TGI,[23],5.88 µM
same,GI50,[24],1.86 µM
same,LC50,[24],6.45 µM
same,TGI,[24],3.46 µM
same,GI50,[25],1.73 µM
